Results taken from patent US11167006B2 (Shanghai Tianci Life Science Development Co., Ltd., priority 2016, dated 2021).
Square brackets hold non-standard residues; d marks the D form. Ends that are not written are not given here.

Key:
[1] = system: CFA-induced inflammatory pain in mouse; experiment: Analgesic tolerance and cross-tolerance in CFA-induced inflammatory pain; format: in vivo; conditions: mechanical pain, lateral ventricle 6 days or subcutaneous 7 days
Description: CFA-induced inflammatory pain in mouse was detected by an electronic Von Frey tenderness instrument, and the basal pain threshold of normal mice was Firstly determined. Then […] of CFA solution was injected subcutaneously into the mouse paw. After 4 days, the mechanical pain sensitivity value of the injected paw of the mouse was measured. And then compound 9 or morphine was injected for 6 consecutive days (lateral ventricle) or 7 consecutive days (subcutaneously), and the mice in morphine group were given compound 9 on day 7 (lateral ventricle) or day 8 (subcutaneous). The mechanical pain thresholds at different time points after administration were recorded.
(§1) The experimental data were expressed as mean± standard error (Means±S.E.M.). Data for differences between groups treated with the same drug were analyzed by one-way ANOVA (Tukey HSD test of one-way ANOVA) for statistics and analysis, *P<0.05. **P<0.005, ***P<0.001 indicates a significant difference between the mechanical pain threshold of the drug-treated group and the pain threshold after the first day of administration.

[2] = system: CCI-induced neuralgia in mouse; experiment: Analgesic tolerance and cross-tolerance in CCI-induced neuralgia; format: in vivo; conditions: subcutaneous, seven consecutive days
Description: CCI-induced neuralgia in mouse was detected using a PL-200 thermal tingling instrument and an electronic Von Frey tenderness instrument. The thermal pain threshold of one group of normal mice and the mechanical pain threshold of another group of normal mice were first determined. The mice were then anesthetized with sodium pentobarbital 80 mg/kg mouse body weight) and the mice were fixed in the prone position. The right sciatic nerve was exposed and 3 mild ligation rings were made around the sciatic nerve using a 4-0 chromic catgut, 1 mm intervals. The ligation intensity is preferably a slight tremor in the right hind leg. On the 10th day after surgery, the thermal pain sensitivity value and mechanical pain sensitivity value of the right hind paw of the two groups of mice were determined. Compound 9 or morphine was then administered subcutaneously for seven consecutive days, and compound 9 was given to mice in the morphine group on day 8. The thermal tingling and mechanical pain thresholds at different time points after administration were recorded.
as §1, with “mean±standard” for “mean± standard”, “**P<0.01,” for “**P<0.005,”, “the” for “the mechanical”, “First” for “first”

[3] = system: gastrointestinal movement of male mice of Kunming strain; experiment: Gastrointestinal movement in vivo (activated carbon suspension); set-up: species or system mouse; conditions: 10 mg/kg (compound 9 subcutaneous; morphine positive control)
Description: Male mice of Kunming strain, weighing 26±2 g. The commonly used toner detection method was used in the detection of astrointestinal movement in vivo. The specific experimental procedure was: before the gastrointestinal movement experiment, the mice were fasted for 16 hours (free drinking during fasting), then the drug was injected through spinal cord or subcutaneously, and after 15 minutes, the activated carbon suspension prepared in advance (a physiological saline suspension containing 5% of activated carbon and 10% gum arabic) was orally perfused into the stomach in a volume of 0.1 ml per 10 g of body weight. After 30 minutes from the perfusion of activated carbon suspension, the animals were sacrificed by cervical dislocation, and then the small intestine of the animal from the pylorus to the cecum was carefully taken out. The total lengths of the small intestine from the pylorus to the cecum and the furthest distance from which the activated carbon suspension moves were measured.
Gastrointestinal movement test results were evaluated by a percentage of gastrointestinal movement, and the percentage of gastrointestinal movement per mouse was calculated by dividing the moving distance of the activated carbon suspension by the total length of the small intestine. The relevant data were expressed as mean of the percentage of gastrointestinal movement±standard error (Means±S.E.M.), the data for differences between groups treated with different drug concentrations were analyzed by one-way ANOVA (Dunnett test in one-way ANOVA) for statistics and analysis, ***P<0.001 represented that there was a significant difference between the percentage of gastrointestinal movement of the drug-treated group and that of the saline group.

[4] = system: movement activity of mice; experiment: Movement activity, open field experiment; format: in vivo, mouse; conditions: subcutaneous 10 mg/kg
Description: The movement activity of the mice was tested by open field experiments. The experimental device is consisted of a 50×50×50 cm topless black plexiglass box and a movement monitoring system. The experiment was carried out in a soundproof environment with an indoor temperature being controlled at 22±1° C. After the experiment was started, the mice were first recorded for free movement within 30 minutes, and then compound 9 or morphine was administered subcutaneously, the movement of the mice was detected for another 150 minutes. Before the experiment for each mouse was started, the whole box was wiped with alcohol as a whole to exclude the residual odor of the previous mouse from affecting the accuracy of the data.
The experimental data were expressed as mean±standard error (Means±S.E.M.), and the data for differences between groups treated with different drugs were analyzed by one-way ANOVA (Bonferroni test in one-way ANOVA) for statistics and analysis, ***P<0.001 represents that there was a significant difference between the movement activity of the drug-treated group and that of the saline group.

mice [5] = experiment: Naloxone withdrawal test; format: in vivo, mouse; conditions: s.c. at 8 hours intervals 20, 40, 60, 80, 100, 100, 100 mg/kg; naloxone 1 mg/kg; 30 minutes
mice [6] = experiment: Conditional position preference test (CPP); format: in vivo, mouse; conditions: subcutaneous 10 mg/kg
Description: The conditional position preference experimental device is a closed device (45×20×20 cm) assembled from transparent plexiglass plates. Two 20×20×20 cm conditional preference boxes are located at both ends of the device, with a small compartment 5×20×20 cm having a passage (5×5×5 cm) connected in the middle. On the first day of the experiment, the passage was kept open, the mice was placed into the device for 15 min, and the mice that had been explored for more than 9 min in any of the preference boxes were excluded. […] On day 5, the passage was kept opened again to ensure that the mice were free to enter into the two preference boxes, and the time that the mice stayed in the drug matching preference box within 15 minutes of the total time was recorded.
The experimental relevant data were expressed as mean±standard error (Means±S.E.M.), and the conditional position preference score represents the time spent on the drug matching preference box on day 5 of each mouse minus the time on the first day in this preference box. Differences between groups treated with different drugs in CPP trials were analyzed by one-way ANOVA (Tukey HSD test in one-way ANOVA) for data statistics and analysis.

[7] = system: male mice of Kunming strain; experiment: Analgesic tolerance test (photothermal tail flick); format: in vivo, mouse
Description: The mice were injected with the drug in the lateral ventricle of the mice for six consecutive days or in the subcutaneous of the mice for eight consecutive days, and their analgesic tolerance were detected by photothermal tail flick method, and the pharmacological activity of the compounds of the present invention in analgesic tolerance was further explored.
In male mice of Kunming strain, the drug was injected continuously in the lateral ventricle for six days, once a day, and the effect of continuous injection of drugs on the pain sensation was detected by a photothermal tail flick instrument. The ambient temperature is controlled at 22±1° C., and the experimental animals are free to eat and drink. The test drug was injected into the lateral ventricle of the mouse for 6 consecutive days, 4 μl per injection. The basic tail flick incubation period (3-5 seconds) was measured before the first day of drug injection, and those mice that were too sensitive or dull were discarded. The tail flick incubation period of 5, 10, 15, 20, 30 min after administration on the first and sixth days was recorded in the experiment. To prevent scald on the tail of the mouse, the maximum tail flick incubation period was set as 10 seconds,
In addition, we further studied the tolerance of subcutaneous administration of compound 9 and morphine in the photothermal tail flick test. The ambient temperature is controlled at 22±1° C., and the experimental animals are free to eat and drink. First, the basic tail flick incubation period (3-5 seconds) of the mice was measured before administration, and then compound 9 or morphine was administered subcutaneously for eight consecutive days. The tail flick incubation period of 10, 15 and 20 minutes after daily administration were recorded. To prevent scald on the tail of the mouse, the maximum tail flick incubation period was set as 10 seconds.
The experimental data is expressed by MPE (maximum possible effect), MPE (%)=100×[(pain threshold after administration−basal pain threshold)/(10 seconds−basal pain threshold)]. The analgesic tolerance of the drug was compared using the MPE value at the time of maximum analgesic effect of the drug. MPE data was expressed as mean±standard error (Means±S.E.M.). The difference in the analgesic effect of continuous administration in the lateral ventricle of the mice for six days was statistically analyzed by the paired T test, and the difference in the analgesic effect of subcutaneous continuous administration for eight days was analyzed by One-way analysis of variance (one-way ANOVA's Tukey HSD test) for statistics, and ***P<0.001 indicates a significant difference from the analgesic effect of the drug injected on the first day.

[8] = system: acute pain caused by photothermal therapy in male mice of Kunming strain; conditions: mouse tail flick, lateral ventricle; from ZL201210098832.2; cited from earlier work
[9] = system: formalin-induced pain mice; conditions: lateral ventricle; Br J Pharmacol 2016; cited from earlier work
[10] = lateral ventricle injection, once a day, morphine 4 nmol

Molecule	analgesic tolerance on continuous injection [1]	analgesic tolerance on continuous injection, mechanical pain sensitivity [2]	analgesic tolerance on continuous injection, thermal sensitivity pain [2]	percentage of gastrointestinal movement [3] [%]	total distance of movement [4] [m]	average number of jumps after naloxone withdrawal (mice [5])	conditional positional preference (mice [6])	analgesic tolerance ([7]; eight consecutive days subcutaneous, 10 mg/kg)	analgesic effect (MPE) after six days of continuous injection [7, 10] [%]	analgesic effect (MPE) on the first day [7, 10] [%]	analgesic tolerance ([7]; six consecutive days lateral ventricle injection, compounds at 3 times ED50, morphine 4 nmol)	analgesic ED50 value of BN-9 [8] [nmol]	analgesic ED50 value of BN-9, formalin first phase pain [9] [nmol]	analgesic ED50 value of BN-9, formalin second phase pain [9] [nmol]
CN1CC[C@]23c4c5ccc(O)c4O[C@H]2[C@@H](O)C=C[C@H]3[C@H]1C5 [morphine, reference compound]	significantly reduced from the fourth day	from the fourth day	from the third day	16.92	439.73	47	produced significant conditional positional preference	significantly reduced from day 4	36.15	86.97	can significantly cause analgesia tolerance			
Tyr-D-Ala-Gly-Phe-Gln-Pro-Gln-Arg-Phe-NH2 (Y[dA]GFQPQRF-NH2) [BN-9]												0.39	0.12	1.14
